# Laboratory results published in patent US10421756B2, “Heterobicyclic N-aminophenyl-amides as inhibitors of histone deacetylase” (Rodin Therapeutics, Inc., priority 2015, dated 2019).
# Columns and labels:
# Type in all cases: binding
# HDAC2 [1] = target: T1, HDAC2 (Homo sapiens (Human), UniProt Q92769); experiment: Reporter displacement assay (HDAC2)
# HDAC2 [2] = target: T1, HDAC2; experiment: Reporter displacement assay (HDAC2); settings: reporter probe displacement, Cheng Prusoff
# Description: (§1) HDAC2 containing a C-terminal HIS-Tag (Proteros) and fluorescently-labeled anti-HIS-antibody are diluted in one vial in assay buffer 50 mM Tris, pH 8.0, 1 mM DTT, 150 mM NaCl, and 0.01% Tween20. Components are pre-incubated for 30 min, then a small volume of reporter probe (Proteros) is added from a highly concentrated stock and incubation is continued for another 30 min. Final concentrations after adding the reporter probe amount to 20 nM HDAC2, 4 nM antibody, and 180 nM probe.
# Ten μl/well of pre-formed complex are transferred into 384 well assay plates (Corning). Compounds to be profiled are serially diluted from […] in DMSO and 60 nl are added to assay plates by pintool transfer (CybiWell, Cybio). Fluorescence intensity signal is read after 4 h in a Pherastar FS (BMG Labtech) at 337/665 nm.
# (§2) For Kd determination, percent probe displacement values are calculated for each compound concentration and plotted against the compound concentration. IC50-like values (corresponding to 50% probe displacement) are calculated using standard fitting algorithms. Since the reporter probe is used at a concentration reflecting its own Kd value, compound Kd values can be calculated according to the Cheng Prusoff equation.
# In the table, “A” indicates a Kd value of less than 0.1 μM; “B” a Kd value of between 0.1 μM and 0.5 μM; “C” a Kd value of greater than 0.5 μM and less than or equal to 5.0 μM; and “D” a Kd value of greater than 5.0 μM.
# HDAC1 = HDAC1 (Homo sapiens (Human), UniProt Q13547); experiment: Reporter displacement assay (HDAC1); settings: for Kd: reporter probe displacement, Cheng Prusoff
# Description: [The procedure below names another target; the source lists this target under the same test.] as §1, with “min.” for “min. Final concentrations after adding the reporter probe amount to 20 nM HDAC2, 4 nM antibody, and 180 nM probe.”
# Ten μl/well of pre-formed complex are transferred into 384 well assay plates (Corning). Compounds to be profiled are serially diluted from […] in DMSO and 60 nl are added to assay plates by pintool transfer (CybiWell, Cybio).
# as §2, with “IC50-like values (corresponding to 50% probe displacement) are calculated using standard fitting algorithms.” left out
# Chain of HDAC1 (Q13547 whole entry): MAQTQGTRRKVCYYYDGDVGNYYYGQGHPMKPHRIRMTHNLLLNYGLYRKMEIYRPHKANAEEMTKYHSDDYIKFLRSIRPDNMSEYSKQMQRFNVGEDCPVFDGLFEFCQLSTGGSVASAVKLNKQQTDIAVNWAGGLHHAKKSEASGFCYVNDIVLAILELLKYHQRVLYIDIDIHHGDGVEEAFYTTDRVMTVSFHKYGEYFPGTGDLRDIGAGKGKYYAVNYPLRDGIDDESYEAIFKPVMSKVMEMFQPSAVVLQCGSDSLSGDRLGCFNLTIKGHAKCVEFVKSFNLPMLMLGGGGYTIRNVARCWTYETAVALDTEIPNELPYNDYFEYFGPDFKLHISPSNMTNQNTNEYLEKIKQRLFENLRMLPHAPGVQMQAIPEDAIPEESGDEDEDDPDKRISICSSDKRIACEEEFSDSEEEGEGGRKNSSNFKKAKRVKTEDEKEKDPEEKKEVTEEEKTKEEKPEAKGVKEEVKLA
# T1 sequence (Q92769 whole entry): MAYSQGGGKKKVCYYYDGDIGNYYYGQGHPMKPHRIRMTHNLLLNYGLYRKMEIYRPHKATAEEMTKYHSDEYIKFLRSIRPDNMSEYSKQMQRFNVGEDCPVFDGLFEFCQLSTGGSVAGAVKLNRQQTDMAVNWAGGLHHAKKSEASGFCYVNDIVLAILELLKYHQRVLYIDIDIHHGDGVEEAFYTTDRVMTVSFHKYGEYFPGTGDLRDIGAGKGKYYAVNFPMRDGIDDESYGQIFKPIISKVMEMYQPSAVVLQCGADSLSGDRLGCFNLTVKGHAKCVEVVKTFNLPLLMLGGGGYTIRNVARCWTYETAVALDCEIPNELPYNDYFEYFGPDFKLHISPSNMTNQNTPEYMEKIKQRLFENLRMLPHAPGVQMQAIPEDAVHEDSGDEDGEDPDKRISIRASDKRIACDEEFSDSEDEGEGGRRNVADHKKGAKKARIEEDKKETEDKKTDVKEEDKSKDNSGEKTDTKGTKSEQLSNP
Compound,residence time (HDAC2 [1]) [min],Kd (HDAC2 [2]) [nM],residence time (HDAC1) [min],Kd (HDAC1) [nM]
CC(C)(C)OC(=O)N1CCC2CN(C(=O)Nc3cc(-c4ccc(F)cc4)ccc3N)CC2C1 (stereo not drawn) [Compound 171],1610,100 to 500,765,100 to 500
Nc1ccc(-c2ccc(F)cc2)cc1NC(=O)c1cn2c(n1)CCCC2 [Compound 150],1010,500 to 5000,1080,100 to 500
Nc1ccc(-c2ccc(Cl)cc2)cc1NC(=O)N1Cc2ccncc2C1 [Compound 130],1300,100 to 500,1080,< 100
CNC(=O)N1CC2CN(C(=O)Nc3cc(-c4ccc(F)cc4)ccc3N)CC2C1 (stereo not drawn) [Compound 120],2360,100 to 500,1550,< 100
Nc1ccc(-c2ccc(F)cc2)cc1NC(=O)N1CCC2(CC1)COC2 [Compound 127],2540,100 to 500,1520,< 100
COCCN1CCC2(CCN(C(=O)Nc3cc(-c4ccc(F)cc4)ccc3N)CC2)C1 [Compound 138],2370,100 to 500,724,100 to 500
Nc1ccc(-c2ccncn2)cc1NC(=O)N1Cc2ccncc2C1 [Compound 103],1960,500 to 5000,330,500 to 5000
Nc1ccc(-c2ccc(C(F)(F)F)cc2)cc1NC(=O)N1Cc2ccncc2C1 [Compound 140],341,500 to 5000,34,500 to 5000
CC(C)OC(=O)N1CC2CN(C(=O)Nc3cc(-c4ccc(F)cc4)ccc3N)CC2C1 (stereo not drawn) [Compound 156],1800,100 to 500,1200,< 100
N#Cc1ccc(-c2ccc(N)c(NC(=O)N3Cc4ccncc4C3)c2)cc1 [Compound 149],573,100 to 500,124,100 to 500
Nc1ccc(-c2ccc(C(F)(F)F)cn2)cc1NC(=O)N1Cc2ccncc2C1 [Compound 167],864,500 to 5000,140,500 to 5000
CC(C)(C)OC(=O)N1CC2CN(C(=O)Nc3cc(-c4ccc(F)cc4)ccc3N)CC2C1 (stereo not drawn) [Compound 124],1790,100 to 500,584,100 to 500
Nc1ccc(-c2ccc(F)cc2)cc1NC(=O)N1CC2CCC(C1)O2 [Compound 111],61,> 5000,34,> 5000
Nc1ccc(-c2ccncc2)cc1NC(=O)c1nc2c(s1)CCNC2 [Compound 174],1940,< 100,1350,< 100
CC(=O)N1C2CCC1CN(C(=O)Nc1cc(-c3ccc(F)cc3)ccc1N)C2 [Compound 116],30,> 5000,16,> 5000
Nc1ccc(-c2ccc(F)cc2)cc1NC(=O)N1Cc2nccnc2C1 [Compound 119],2150,100 to 500,1500,100 to 500
Nc1ccc(-c2ccncc2)cc1NC(=O)c1cn2c(n1)CNCC2 [Compound 123],1610,100 to 500,1050,100 to 500
Nc1ccc(-c2ccc(F)c(F)c2)cc1NC(=O)N1Cc2ccncc2C1 [Compound 135],1210,100 to 500,353,100 to 500
Nc1ccc(-c2ccco2)cc1NC(=O)N1Cc2ccncc2C1 [Compound 168],5570,< 100,1380,< 100
CC(C)(C)OC(=O)N1C2CCC1CN(C(=O)Nc1cc(-c3ccc(F)cc3)ccc1N)C2 [Compound 112],38,> 5000,9,> 5000

# Second part, the compound after the results:
residence time (HDAC2 [1]) [min],Kd (HDAC2 [2]) [nM],residence time (HDAC1) [min],Kd (HDAC1) [nM],Compound
1720,100 to 500,259,500 to 5000,Nc1ccc(-c2ccncc2)cc1NC(=O)N1CCC2(CC1)CCN(C1COC1)C2 [Compound 165]
1540,100 to 500,941,< 100,COCCN1CCC2(CCN(C(=O)Nc3cc(-c4ccncc4)ccc3N)CC2)C1 [Compound 136]
1010,500 to 5000,982,500 to 5000,Nc1ccc(-c2cc(F)c(F)c(F)c2)cc1NC(=O)N1Cc2ccncc2C1 [Compound 142]
1500,100 to 500,1730,< 100,N#CC1CCc2nc(C(=O)Nc3cc(-c4ccc(F)cc4)ccc3N)cn2C1 (stereo not drawn) [Compound 128]
1930,100 to 500,906,< 100,Nc1ccc(-c2ccncc2)cc1NC(=O)N1Cc2nccnc2C1 [Compound 101]
2330,< 100,1360,< 100,CNC(=O)N1CCc2nc(C(=O)Nc3cc(-c4ccc(F)cc4)ccc3N)sc2C1 [Compound 152]
1700,100 to 500,724,< 100,Nc1ccc(-c2ccncc2)cc1NC(=O)N1CC2CN(C3COC3)CC2C1 (stereo not drawn) [Compound 129]
1410,100 to 500,1240,< 100,Nc1ccc(-c2ccncc2)cc1NC(=O)N1Cc2ccncc2C1 [Compound 102]
1410,100 to 500,788,< 100,Nc1ccc(-c2ccc(F)cc2)cc1NC(=O)N1CC2CN(C(=O)C3CC3)CC2C1 (stereo not drawn) [Compound 125]
1540,100 to 500,1350,100 to 500,COC(=O)N1CC2CN(C(=O)Nc3cc(-c4ccc(F)cc4)ccc3N)CC2C1 (stereo not drawn) [Compound 154]
